Experimental data: PubChem BioAssay (NCI)
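The concentration for 50% growth inhibition is given as GI50. TGI: concentration producing complete growth inhibition.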

Columns and labels:
Assay in all cases: DTP human tumour cell line panel, 384-well format
[1] = system: CAKI-1 renal
[2] = system: HL-60(TB) leukemia
[3] = system: MDA-MB-468 breast
[4] = system: NCI-H23 lung
[5] = system: RPMI-8226 leukemia
[6] = system: 786-0 renal
[7] = system: A498 renal
[8] = system: A549 NSCLC
[9] = system: ACHN renal
[10] = system: BT-549 breast
[11] = system: CCRF-CEM leukemia
[12] = system: COLO 205 colon
[13] = system: DU-145 prostate
[14] = system: EKVX NSCLC
[15] = system: HCC-2998 colon
[16] = system: HCT-116 colon
[17] = system: HCT-15 colon
[18] = system: HOP-62 NSCLC
[19] = system: HOP-92 NSCLC
[20] = system: HS 578T breast
[21] = system: HT29 colon
[22] = system: IGROV1 ovarian
[23] = system: KM12 colon
[24] = system: LOX IMVI melanoma
[25] = system: M14 melanoma
[26] = system: MALME-3M melanoma
[27] = system: MCF7 breast
[28] = system: MDA-MB-231 breast
[29] = system: MDA-MB-435 melanoma
[30] = system: MOLT-4 leukemia
[31] = system: NCI-H226 lung
[32] = system: NCI-H322M lung
[33] = system: NCI-H460 NSCLC
[34] = system: NCI-H522 lung
[35] = system: NCI/ADR-RES ovarian
[36] = system: OVCAR-3 ovarian
[37] = system: OVCAR-4 ovarian
[38] = system: OVCAR-5 ovarian
[39] = system: OVCAR-8 ovarian
[40] = system: PC-3 prostate
[41] = system: RXF 393 renal
[42] = system: SF-268 CNS
[43] = system: SF-295 CNS
[44] = system: SF-539 CNS
[45] = system: SK-MEL-28 melanoma
[46] = system: SK-MEL-5 melanoma
[47] = system: SK-OV-3 ovarian
[48] = system: SN12C renal
[49] = system: SNB-19 CNS
[50] = system: SNB-75 CNS
[51] = system: SR leukemia
[52] = system: SW-620 colon
[53] = system: T-47D breast
[54] = system: TK-10 renal
[55] = system: U251 glioblastoma
[56] = system: UACC-257 melanoma
[57] = system: UACC-62 melanoma
[58] = system: UO-31 renal

For `O=c1[nH]cnc2[nH]ncc12`, the GI50 [1] was 36.8 µM, the GI50 [2] was 74.5 µM and the GI50 [3] was 85.2 µM. For the same molecule, the GI50 [4] was 98.4 µM, the GI50 [5] was 24 µM and the TGI [5] was 60.9 µM.
`Cc1cc(Nc2ncnc3ccc(NC4=NC(C)(C)CO4)cc23)ccc1Oc1ccn2ncnc2c1` showed a GI50 [6] of 4.25 µM, a TGI [6] of 8.71 µM and a GI50 [7] of 4.69 µM. The TGI [7] was 9.11 µM, the GI50 [8] was 14.6 µM and the TGI [8] was > 47.3 µM. The GI50 [9] was 12.6 µM, the TGI [9] was > 46.9 µM and the GI50 [10] was 5.36 µM. For the same molecule, the TGI [10] was 10.7 µM, the GI50 [1] was 4.23 µM and the TGI [1] was 12.6 µM. For the same molecule, the GI50 [11] was 22.9 µM, the TGI [11] was > 100 µM and the GI50 [12] was > 40.9 µM. The TGI [12] was > 55.1 µM, the GI50 [13] was 13.6 µM and the TGI [13] was 27.8 µM. The GI50 [14] was 23 µM, the TGI [14] was > 46 µM and the GI50 [15] was 24.3 µM. It also gave a TGI [15] of 98.8 µM, a GI50 [16] of 6.82 µM and a TGI [16] of 20.3 µM. For the same molecule, the GI50 [17] was 9.08 µM, the TGI [17] was 25.4 µM and the GI50 [2] was 5.59 µM. The TGI [2] was 10.3 µM, the GI50 [18] was 13.5 µM and the TGI [18] was 28.7 µM. It also gave a GI50 [19] of 4.48 µM, a TGI [19] of 10.3 µM and a GI50 [20] of 3.74 µM. The TGI [20] was 8.79 µM, the GI50 [21] was 29.9 µM and the TGI [21] was > 100 µM. The GI50 [22] was 5 µM, the TGI [22] was > 40.4 µM and the GI50 [23] was 2.64 µM. For the same molecule, the TGI [23] was > 55 µM, the GI50 [24] was 14.6 µM and the TGI [24] was 28.7 µM. For the same molecule, the GI50 [25] was 11.4 µM, the TGI [25] was > 57.2 µM and the GI50 [26] was 2.29 µM. The TGI [26] was 7.05 µM, the GI50 [27] was 18.3 µM and the TGI [27] was > 48.2 µM. The GI50 [28] was 13.6 µM, the TGI [28] was 27.7 µM and the GI50 [29] was 18.6 µM. The TGI [29] was > 59.6 µM, the GI50 [3] was 6.86 µM and the TGI [3] was 19.1 µM. It also gave a GI50 [30] of 1.93 µM, a TGI [30] of 7.7 µM and a GI50 [31] of 12.5 µM. For the same molecule, the TGI [31] was > 43 µM, the GI50 [4] was 25.1 µM and the TGI [4] was > 53.1 µM. For the same molecule, the GI50 [32] was 5.09 µM, the TGI [32] was > 43.6 µM and the GI50 [33] was 4.32 µM. For the same molecule, the TGI [33] was 9.09 µM, the GI50 [34] was 1.29 µM and the TGI [34] was 23.7 µM. The GI50 [35] was 14.3 µM, the TGI [35] was 27.5 µM and the GI50 [36] was 4.71 µM. It also gave a TGI [36] of 10 µM, a GI50 [37] of 10.3 µM and a TGI [37] of 22.6 µM. For the same molecule, the GI50 [38] was > 38.8 µM, the TGI [38] was > 58.1 µM and the GI50 [39] was 14.3 µM. The TGI [39] was > 44.3 µM, the GI50 [40] was 8.56 µM and the TGI [40] was > 53.8 µM. For the same molecule, the GI50 [5] was 2.54 µM, the TGI [5] was 14.9 µM and the GI50 [41] was 7.33 µM. The TGI [41] was > 27.7 µM, the GI50 [42] was 6.32 µM and the TGI [42] was > 50.2 µM. The GI50 [43] was 16.3 µM, the TGI [43] was 32.9 µM and the GI50 [44] was 5.18 µM. For the same molecule, the TGI [44] was 9.56 µM, the GI50 [45] was 8.21 µM and the TGI [45] was 49.7 µM. It also gave a GI50 [46] of 12.3 µM, a TGI [46] of 26.6 µM and a GI50 [47] of 13 µM. The TGI [47] was > 46 µM, the GI50 [48] was 5.84 µM and the TGI [48] was 20 µM. For the same molecule, the GI50 [49] was 9.26 µM, the TGI [49] was > 61.7 µM and the GI50 [50] was 6.7 µM. For the same molecule, the TGI [50] was 13.8 µM, the GI50 [51] was 0.407 µM and the TGI [51] was 0.814 µM. For the same molecule, the GI50 [52] was 6.12 µM, the TGI [52] was > 57.8 µM and the GI50 [53] was 2.9 µM. For the same molecule, the TGI [53] was 21.3 µM, the GI50 [54] was 15.2 µM and the TGI [54] was 36 µM. It also gave a GI50 [55] of 15.9 µM, a TGI [55] of 36.1 µM and a GI50 [56] of 20.2 µM. For the same molecule, the TGI [56] was 44.6 µM, the GI50 [57] was 5.05 µM and the TGI [57] was 10.3 µM. The GI50 [58] was 3.27 µM and the TGI [58] was 8.28 µM.
